# From paper PMC7686308, “Overcoming the blood–brain barrier by Annexin A1-binding peptide to target brain tumours” (British Journal of Cancer, 2020)
# “Also recorded” adds a separate entry of the source. Peptide text beside a SMILES is read from it. * marks the point of attachment. X1 = CCc1c2c(nc3ccc(OC(=O)C4CCC(CNC(=O)C5CCC(CN6C(=O)CC(*)C6=O)CC5)CC4)cc13)-c1cc3c(c(=O)n1C2)COC(=O)[C@]3(O)CC
# What was measured:
# C6 cells = experiment: Cytotoxicity on C6 cells (CellTiter Glo); type: cell-based, rat
# Procedure: (§1) Drug concentration (OM) Drug concentration ( nM) […]
# (§2) Supplementary Fig 7 . Cytotoxicity of peptide-conjugated SN38, free peptide s and unconjugated SN-38 and irinotecan (CPT-11) on C6 and B16 cells cultured in vitro. Rat glioma C6 and mouse melanoma B16 cells were treated with reagents shown along the top panels at the concentration indicated and cultured for 2 days. Cell viability was determined by a CellTiter Glo (Promega) assay. The IC50 of each reagent was determined using GraphPad Prism program. N.D.: not determined.
# B16 cells = experiment: Cytotoxicity on B16 cells (CellTiter Glo); type: cell-based, mouse
# Procedure: as §1, §2
# [1] = test system: C6-Luc brain and subcutaneous tumours; experiment: C6-Luc dual-tumour model in NOD-SCID mice; type: in vivo, rat tumour cells in NOD-SCID mice
# Procedure: (§3) C6-Luc cells (5 × 10^4 suspended in 2 μl PBS) were injected into C57BL/6 mouse brain striatum using a stereotaxic frame as described previously.[21] Seven days later, mice underwent imaging for luciferase-expressing tumours. To do so, 100 μl luciferin (30 mg/ml PBS) was injected peritoneally. Mice were then anesthetised under isoflurane gas (20 ml/min) supplemented with oxygen (1 ml/min) and placed under a camera equipped with a Xenogen IVIS 200 imager at both the SBP and AIST animal facilities. Photon numbers were measured for 1–10 sec or for 1 min. For the dual-tumour model, C6-Luc cells were similarly injected into the brain of NOD-SCID mice. When a brain tumour became detectable by IVIS imager, C6-Luc cells (2 × 10^5 suspended in 100 μl PBS) were injected subcutaneously into the dorsal flank of the same mice. Photon numbers in brain and subcutaneous tumours were measured using the IVIS imager. The dual-tumour model was also produced using B16-Luc cells in the isogeneic C57BL/6 mouse. B16-Luc cells (5 × 10^4) were injected into brains of 8–10-weeks-old C57BL/6 female mice as described above for C6-Luc cells. When brain tumours became detectable, B16-Luc cells (2 × 10^5 cells) were injected subcutaneously into the dorsal flank of the same mouse. […]
# Next, to compare drug dosages required to suppress growth of brain versus subcutaneous tumours in vivo, we undertook experiments with a dual-tumour model, in which a single SCID mouse received C6-Luc cells both in brain and under the skin (Fig. 4a, Supplementary Fig. 8A). Mice were then injected intravenously with IF7C(RR)-SN38 and tumour growth in both locations was assessed in vivo by photon number.
# Fig. 4 Effect of IF7C(RR)-SN38 on the dual-tumour model mice. a Dual-tumour model was established with C6-Luc cells in NOD-SCID mice. […] Growth of B16-Luc cells were monitored as in a similar manner as in a, followed by intravenous injection with either IF7C(RR)-SN38 (7.0 μmoles/kg), irinotecan (CPT-11) (50 μmoles/kg) or buffer control daily for 6 days. […] Statistical analysis was assessed by Student’s t-test.
# [2] = test system: B16-Luc brain and subcutaneous tumours; experiment: B16-Luc dual-tumour model in C57BL/6 mice; type: in vivo, mouse (C57BL/6)
# Procedure: (§4) C6-Luc cells (5 × 10^4 suspended in 2 μl PBS) were injected into C57BL/6 mouse brain striatum using a stereotaxic frame as described previously.[21] Seven days later, mice underwent imaging for luciferase-expressing tumours. To do so, 100 μl luciferin (30 mg/ml PBS) was injected peritoneally. Mice were then anesthetised under isoflurane gas (20 ml/min) supplemented with oxygen (1 ml/min) and placed under a camera equipped with a Xenogen IVIS 200 imager at both the SBP and AIST animal facilities. Photon numbers were measured for 1–10 sec or for 1 min. For the dual-tumour model, C6-Luc cells were similarly injected into the brain of NOD-SCID mice. When a brain tumour became detectable by IVIS imager, C6-Luc cells (2 × 10^5 suspended in 100 μl PBS) were injected subcutaneously into the dorsal flank of the same mice. Photon numbers in brain and subcutaneous tumours were measured using the IVIS imager. The dual-tumour model was also produced using B16-Luc cells in the isogeneic C57BL/6 mouse. B16-Luc cells (5 × 10^4) were injected into brains of 8–10-weeks-old C57BL/6 female mice as described above for C6-Luc cells. When brain tumours became detectable, B16-Luc cells (2 × 10^5 cells) were injected subcutaneously into the dorsal flank of the same mouse.
# (§5) IF7C(RR)-SN38 was injected intravenously through the tail vein into tumour-bearing mice once photon number of C6-Luc brain tumour reached 5 × 10^4, which usually occurred after 2 weeks. IF7C(RR)-SN38 (142 μg or 0.0567 μmoles) dissolved in 10 μl dimethylsulfoxide (DMSO) diluted with 100 μl of 50% Cremophore EL in ethanol plus 90 μl PBS was injected intravenously through the tail vein. As the average body weight of a mouse was 18 g, IF7C(RR)-SN38 dose per injection was 3.15 μmoles/kg. For B16-Luc brain tumours, IF7C(RR)-SN38 formulated with Cremophore EL was used at the dosage 7.0 μmoles/kg. Irinotecan (CPT-11), a water soluble SN38 prodrug, was dissolved in PBS and intravenously injected into mice at 50 μmoles /kg. In another set of experiments, brain tumour-bearing mice were treated with IF7C(RR)-SN38 (100 μg or 0.0412 μmoles) dissolved in 10 μl DMSO followed by dilution with 100 μl 10% Solutol HS15 in water. In that case, drug dosage was 2.5 μmoles/kg. Similarly formulated C(RR)-SN38 served as control.
# Fig. 4 Effect of IF7C(RR)-SN38 on the dual-tumour model mice. a Dual-tumour model was established with C6-Luc cells in NOD-SCID mice. C6-Luc cells were grown both in brain and under the skin of mice. When tumours in brain and subcutaneous grew by showing photon number more than 2×10^4, IF7C(RR)-SN38 (3.15 μmoles/kg) was injected intravenously daily through tail vein for 9 days. b Effect of IF7C(RR)-SN38 on a dual-tumour model with B16-Luc melanoma cells in C57BL/6 mice. Growth of B16-Luc cells were monitored as in a similar manner as in a, followed by intravenous injection with either IF7C(RR)-SN38 (7.0 μmoles/kg), irinotecan (CPT-11) (50 μmoles/kg) or buffer control daily for 6 days. The drug was diluted in Cremophore EL. In each a and b, error bars denote means ± SEM. Statistical analysis was assessed by Student’s t-test.
# B16-Luc brain tumours = experiment: B16-Luc brain tumour in C57BL/6 mice, Solutol HS15 formulation; type: in vivo, mouse (C57BL/6); details: 2.5 μmoles/kg i.v. daily for 7 days
# Procedure: as §4, §5
# Fig. 5 Therapeutic effect of IF7C(RR)-SN38 formulated with Solutol HS15. a Effect of IF7C(RR)-SN38 on B16-Luc brain tumours in C57BL/6 mice. b Effect of IF7C(RR)-SN38 on C6-Luc brain tumours in nude mice. In these experiments, drug dosage was 2.5 μmoles/kg each for IF7C(RR)-SN38 or C(RR)-SN38 (control), diluted with 10% Solutol HS15 in water and administered daily for 7 days. Note that the B16 brain tumours continued shrinking after ceasing administration of IF7C(RR)-SN38 in C57BL/6 mice. In each a and b, error bars denote means ± SEM. Statistical analysis was assessed by Student’s t-test.
# C6-Luc brain tumours = experiment: C6-Luc brain tumour in nude mice, Solutol HS15 formulation; type: in vivo, rat tumour cells in nude mice; details: 2.5 μmoles/kg i.v. daily for 7 days, 10% Solutol HS15
# Procedure: as §3, with “cells.” for “cells. When brain tumours became detectable, B16-Luc cells (2 × 10^5 cells) were injected subcutaneously into the dorsal flank of the same mouse.”
# Fig. 5 Therapeutic effect of IF7C(RR)-SN38 formulated with Solutol HS15. a Effect of IF7C(RR)-SN38 on B16-Luc brain tumours in C57BL/6 mice. b Effect of IF7C(RR)-SN38 on C6-Luc brain tumours in nude mice. […] Statistical analysis was assessed by Student’s t-test.
# B16-Luc cells = experiment: B16-Luc rechallenge of brain tumour-recovered mice; type: in vivo, mouse (C57BL/6); details: mice recovered from brain B16-Luc tumours after treatment; 4 days after s.c. injection
# Procedure: (§6) The presence of tumour-infiltrating lymphocytes, especially CD8^+ cytotoxic T cells, is correlated with better prognosis of various cancers.[32],[33] To assess possible involvement of cytotoxic T cells in an antitumour response by host mice, we injected two isogenic cell lines, B16-Luc and LL/2-Luc, into naïve C57BL/6 mice and also into C57BL/6 mice that recovered from brain B16-Luc tumours following IF7C(RR)-SN38 treatment. When these cells were injected subcutaneously in a naïve mouse, both lines formed tumours (Fig. 6a, left).
# (§7) Fig. 6 Immunological rejection of the cancer cells from the mouse recovered from brain tumour by IF7C(RR)-SN38 therapy. a Growth of two syngeneic cancer lines in naïve and brain tumour-recovered mice 4 days after subcutaneous injection of LL/2-Luc or B16-Luc cells. b Immunohistochemistry with anti-CD8 antibody of B16-Luc cells at subcutaneous injection sites, 20 h after B16-Luc cell injection. Scale bars: 100 μm. c Quantitative analysis of CD8^+ cells in subcutaneous injection sites.
# LL/2-Luc cells = experiment: LL/2-Luc rechallenge of brain tumour-recovered mice; type: in vivo, mouse (C57BL/6); details: mice recovered from brain B16-Luc tumours after treatment; 4 days after s.c. injection
# Procedure: as §6, §7
# CD8+ T cells = experiment: CD8+ cell infiltration at B16-Luc injection site (immunohistochemistry); type: in vivo, mouse (C57BL/6); details: recovered C57BL/6 mice; 20 h after B16-Luc s.c. injection (naïve: 0.2 cells/HPF)
# Procedure: as §7
# [3] = LC-MS/MS analysis of SN38 in brain tumours; type: in vivo, mouse; details: mice intravenously injected with IF7C(RR)-SN38
# [4] = 3.15 μmoles/kg i.v. daily, 9 days, Cremophore EL
# [5] = 7.0 μmoles/kg i.v. daily, 6 days, Cremophore EL
smiles,measurement,setting,value
CCc1c2c(nc3ccc(OC(=O)C4CCC(CNC(=O)C5CCC(CN6C(=O)CC(SC[C@H](NC(=O)[C@H](CCCNC(=N)N)NC(=O)[C@H](CCC(N)=O)NC(=O)[C@H](Cc7c[nH]c8ccccc78)NC(=O)[C@H](CC(C)C)NC(=O)[C@H](CC(C)C)NC(=O)[C@H](Cc7ccccc7)NC(=O)[C@@H](N)[C@@H](C)CC)C(=O)N[C@@H](CCCNC(=N)N)C(=O)N[C@@H](CCCNC(=N)N)C(=O)O)C6=O)CC5)CC4)cc13)-c1cc3c(c(=O)n1C2)COC(=O)[C@]3(O)CC (stereo partly drawn) [IF7C(RR)-SN38] (H-IFLLWQRC(X1)RR-OH; N-terminus and C-terminus assumed),logIC50,"C6 cells; C6, 2 days, CellTiter Glo, GraphPad Prism",1.812
same,cytotoxic activity compared with free SN38,"C6 cells; in vitro, C6 cells",comparable to those of free SN38
same,logIC50,"B16 cells; B16, 2 days, CellTiter Glo, GraphPad Prism",2.171
same,cytotoxic activity compared with free SN38,"B16 cells; in vitro, B16 cells",comparable to those of free SN38
same,brain tumour growth (photon number),[1]; [4],significantly suppressed tumour growth relative to buffer controls
same,subcutaneous tumour growth (photon number),[1]; [4],significantly suppressed tumour growth relative to buffer controls
same,brain versus subcutaneous tumour effect,"[1]; 3.15 μmoles/kg, C6-Luc, NOD-SCID",effect of IF7C(RR)-SN38 on brain tumours is comparable to that on subcutaneous tumours
same,brain tumour growth (photon number),[2]; [5],significantly antagonised growth of both brain and subcutaneous tumours compared to buffer controls
same,subcutaneous tumour growth (photon number),[2]; [5],significantly antagonised growth of both brain and subcutaneous tumours compared to buffer controls
same,brain versus subcutaneous tumour effect,"[2]; 7.0 μmoles/kg, B16-Luc, C57BL/6",effect of IF7C(RR)-SN38 on brain tumours is comparable to that on subcutaneous tumours
same,B16-Luc brain tumour response during the first week,B16-Luc brain tumours; 10% Solutol HS15,tumours began shrinking during the first week of daily injections
same,"B16-Luc brain tumour, final outcome",B16-Luc brain tumours; 10% Solutol HS15,completely disappeared; also recorded: complete disappearance of brain tumours
same,survival after cessation of treatment without signs of B16-Luc cell growth,B16-Luc brain tumours; 10% Solutol HS15,more than 3 months
same,therapeutic effect with Solutol HS15 relative to Cremophore EL,B16-Luc brain tumours; 10% Solutol HS15 in water,significantly improved
same,"B16-Luc brain tumour response, second week without injection",B16-Luc brain tumours; then no drug,continued shrinking during the second week without drug injection
same,C6-Luc brain tumour growth,C6-Luc brain tumours,suppressed the tumour growth
same,complete disappearance of C6-Luc brain tumours,C6-Luc brain tumours,did not promote complete disappearance of brain tumours
same,B16-Luc tumour formation after s.c. rechallenge,B16-Luc cells,B16-Luc tumours did not appear
same,LL/2-Luc tumour formation after s.c. challenge,LL/2-Luc cells,LL/2-Luc tumours grew
same,CD8+ cell infiltration at injection sites,CD8+ T cells,92.2 cells/HPF
same,SN38 in brain tumours,[3],did not detect SN38 in brain tumours
